According to patent publication US5641760A, “Method of treating candida infection” (Pence, Inc., priority 1994, dated 1997):

Tests used:
[1] = test system: Candida albicans strain #40 fimbriae (enriched fimbriae EF, 66 kDa fimbrial subunit/adhesin protein); test: Thin-layer chromatography plate binding assay of fimbriae to glycosphingolipids; conditions: 10 μg GSL per spot; 100 μg EF/ml; detected with mAb Fm16
Method: Bound fimbriae on the TLC plates were visualized with a Protein G affinity-purified anti-C. albicans fimbriae monoclonal antibody, Fm16, obtained from ascites tumor in Balb/c mice as described below and a goat anti-mouse IgG alkaline phosphatase. […] (Lane 2).
The thin-layer chromatography (TLC) plate binding assay was performed as described by Baker et al. (1) with minor modifications. Aluminum-backed silica gel Si60 high performance TLC plates (Merck Kieselgel Si60, no fluorescence indicator, E. Merck, Darmstadt, Germany) were cut to produce 8×2.5 cm plates which were chromatographed with 100% methanol to the top of the plate to remove impurities and the plates were air dried. Glycosphingolipids (GSLs) (10 μg of each GSL) were loaded 1.0 cm above the base of the plate. The following glycosphingolipids purchased from Sigma Co. (St. Louis, Mo.) were used: mono-sialoganglioside (M-GM1), asialoganglioside GM1 (asialo-GM1), asialoganglioside GM2 (asialo-GM2), lactosylcerebroside (LCS), ceramide trihexoside (CTH). GSLs were separated on the TLC plates in chloroform-methanol-water (65:35:8, v/v/v) and air dried. One set of plates was sprayed with 10% sulphuric acid in ethanol and heated at 100°-150° C. for 5-10 min to char the GSLs for visual detection, and the other set was used for the fimbrial binding assay. The four corners of the plate were bent to 90° and the remainder of the assay was done with the TLC plates inverted in all solutions and at room temperature in an incubator shaker (model G25 Gyroshaker, New Brunswick Scientific, New Jersey, U.S.A.) at 20 rpm agitation. The TLC plate was blocked with 50 mM tris-hydroxy-methyl aminomethane pH 7.5 containing 150 mM NaCl (TBS), 0.25% (w/v) gelatin, 3% (w/v) BSA, 5 mM EDTA and 0.05% (v/v) Nonidet P40 in a glass petri dish for 2 hr at room temperature. The blocking solution was aspirated and 10 ml of EF (100 μg EF/ml in 100 mM TBS, pH 7.5) was then added. The fimbriae were allowed to bind to GSLs for 2 hours at room temperature. The plates were gently washed (2×5 min) with 10 ml of 100 mM TBS containing 0.1% (v/v) Tween 20 (TBST). The murine anti-EF monoclonal antibody, Fm16, was diluted 1:200 with TBST and 10 ml was added to the TLC plates. The solution was incubated for 1 hour at room temperature. Unbound antibodies were removed by washing the plates with 10 ml of TBST (2×5 min). The plate was then incubated with 10 ml of goat anti-mouse immunoglobulin G alkaline phosphatase conjugate (Jackson Laboratories) diluted 1:5,000 with TBST for 1 hour at room temperature. The plates were washed (2×5 min.) with 10 ml of TBST. The alkaline phosphatase activity was localized with Nitro Blue Tetrazolium chloride (NBT) and 5-bromo-4-chloro-3-indolyl phosphate (BCIP) dissolved in 100 mM Tris buffer, pH 9.5 containing 100 mM NaCl and 5 mM MgCl2. Color development was quenched by rinsing the TLC plate with deionized water and submerging the plate into a 150 mM EDTA solution pH 8.0 for 3-5 min. The plates were air dried, stored in plastic in the dark until they were photographed.

[2] = test system: Candida albicans strain #40 fimbriae (enriched fimbriae EF, 66 kDa fimbrial subunit/adhesin protein); test: Inhibition of fimbriae binding to immobilized glycosphingolipids by free glycosphingolipids
Method: The binding specificity to GSLs was assessed in experiments in which free GSLs were tested for their abilities to inhibit binding of C. albicans fimbriae to immobilized GSLs. These experiments were carried out using the microtiter plate assay described above, and as further detailed in Example 5B. C. albicans fimbriae (50 μg/ml) were preincubated with varying concentrations of asialo-GM1 or CTH at 37° C. for an hour prior to addition into the precoated microtiter wells. In this assay, GSLs were suspended in phosphate buffered saline (PBS) at a sufficiently low concentration to prevent micellar formation. C. albicans fimbriae binding to immobilized asialo-GM1 was reduced by 78% (Diamonds, FIG. 11B) by asialo-GM1.
Polystyrene microtiter plate wells (Nunc) were coated with asialo-GM1 or ceramide trihexoside (CTH) (Sigma Chem. Co., St. Louis, Mo.). Aliquots of the GSLs (5 μg/ml resuspended in methanol) were added into the wells (100 μl/well) and the plates were incubated overnight at 4° C. The wells were washed three times with 250 μl/well of 10 mM phosphate buffered saline pH 7.4 containing 150 mM NaCl (PBS) supplemented with 0.05% (w/v) bovine serum albumin (Buffer A). Excess binding sites were blocked by the addition of 200 μl/well of 5% (w/v) BSA in PBS pH 7.4 and incubation at 37° C. for 1 hour. Wells were washed three times with 250 μl/well of buffer A. Enriched fimbriae ranging from 0 to 40 μg protein/ml in Buffer A were added to the wells (100 μl/well) and incubated for 2 hour at 37° C. Aliquots of mouse anti-EF monoclonal antibodies, Fm16 (diluted 1:500), was added to each well (100 μl) and incubated at 37° C. for 2 hours. Wells were washed 5 times with 250 μl/well of Buffer A. Antibody binding to EF was assessed by the addition of a goat anti-mouse heavy and light chain [IgG(H+L)] immunoglobulin G-peroxidase conjugates (Jackson Laboratories) to each well (100 μl/well) and incubated for 1 hour at 37° C. […] The reaction was stopped by an addition of 125 μl/well of 4 mM sodium azide and the absorbance at 405 nm was recorded. […]

| Substance | Binding of C. albicans fimbriae to glycosphingolipid on TLC plate [1] | Competition of fimbriae binding ([2]; fimbriae 50 μg/ml preincubated with competitor (0 to 15 μg/ml)) | Reduction of fimbriae binding to immobilized asialo-GM1 ([2]; fimbriae 50 μg/ml preincubated with competitor (0 to 15 μg/ml) 1 h at 37° C.) [%] | Concentration required for half-maximal inhibition ([2]; fimbriae 50 μg/ml, immobilized asialo-GM1) [µg/mL] |
| --- | --- | --- | --- | --- |
| ceramide trihexoside [CTH, ceramide trihexoside [aGal(1-4)βGal(1-4)βGlc(1-1)Cer]] | failed to bind | No competition | – | – |
| gangliotetraosylceramide: βGal(1-3)βGalNAc(1-4)βGal(1-4)βGlc(1-1)Cer [asialo-GM1] | bind specifically | – | 78 | 1.44 |
